Test results as given in ChEMBL document CHEMBL3621196, “Quinazolinedione SIRT6 inhibitors sensitize cancer cells to chemotherapeutics” (Eur J Med Chem, 2015).
Blank lines part the entries; values can stand above or below the molecule they belong to. Calls of active or inactive are those of the source. No cut-off for these calls is given here.

Tests used:
[1] = biological target: T1, NAD-dependent protein deacylase sirtuin-6 (Homo sapiens, UniProt Q8N6T7); experiment: Inhibition of human recombinant SIRT6 deacetylase activity using Arg-His-Lys-Lys(AC)-AMC as a substrate by […] assay
[2] = biological target: T1, NAD-dependent protein deacylase sirtuin-6; experiment: Inhibition of human SIRT6 deacetylase activity using Arg-His-Lys-Lys(AC)-AMC as a substrate by fluorescence assay
[3] = test system: CAPAN-1; experiment: Induction of DNA damage in human BRCA2-deficient Capan1 cells assessed as increase in gammaH2AX levels at 8 uM after 24 hrs by flow cytometry analysis; type: functional, cell-based
[4] = test system: CAPAN-1; experiment: Induction of DNA damage in human BRCA2-deficient Capan1 cells assessed as increase in gammaH2AX levels at 8 uM after 24 hrs by confocal microscopy; type: functional, cell-based
[5] = Cytotoxicity against human HEK293 cells assessed as cell viability using propidium iodide by flow cytometry; type: cell-based; conditions: read-out: Activity
[6] = biological target: T1, NAD-dependent protein deacylase sirtuin-6; experiment: Inhibition of SIRT6 in human PBMC assessed as inhibition of PHA-induced TNF alpha production at 100 uM after 3 days by ELISA
[7] = biological target: T2, NAD-dependent protein deacetylase sirtuin-1 (Homo sapiens, UniProt Q96EB6); experiment: Inhibition of human SIRT1 deacetylase activity using Arg-His-Lys-Lys(AC)-AMC as a substrate by fluorescence assay
T2 sequence (Q96EB6 whole entry): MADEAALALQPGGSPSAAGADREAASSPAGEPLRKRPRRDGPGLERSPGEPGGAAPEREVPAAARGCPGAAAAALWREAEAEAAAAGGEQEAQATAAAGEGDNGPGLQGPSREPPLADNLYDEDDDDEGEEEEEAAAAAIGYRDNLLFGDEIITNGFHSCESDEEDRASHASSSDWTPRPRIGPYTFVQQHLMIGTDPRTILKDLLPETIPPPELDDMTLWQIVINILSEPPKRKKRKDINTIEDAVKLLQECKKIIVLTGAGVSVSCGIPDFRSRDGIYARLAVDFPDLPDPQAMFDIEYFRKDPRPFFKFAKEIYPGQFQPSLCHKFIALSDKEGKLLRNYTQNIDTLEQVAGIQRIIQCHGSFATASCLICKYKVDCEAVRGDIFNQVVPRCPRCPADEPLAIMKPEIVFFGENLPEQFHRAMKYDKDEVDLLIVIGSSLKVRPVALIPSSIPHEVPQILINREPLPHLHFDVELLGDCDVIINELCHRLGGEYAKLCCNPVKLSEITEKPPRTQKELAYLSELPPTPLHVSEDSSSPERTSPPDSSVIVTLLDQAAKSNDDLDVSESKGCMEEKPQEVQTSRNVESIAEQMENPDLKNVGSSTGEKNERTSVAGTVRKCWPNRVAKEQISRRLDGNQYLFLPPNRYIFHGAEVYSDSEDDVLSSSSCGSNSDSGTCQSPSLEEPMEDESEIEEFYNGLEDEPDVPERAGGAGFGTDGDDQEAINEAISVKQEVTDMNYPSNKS

[8] = organism: Homo sapiens; experiment: Selectivity ratio of IC50 for human SIRT2 to IC50 for human SIRT6
[9] = biological target: Protein Sirt6 (Rattus norvegicus) (UniProt A6K863); experiment: Inhibition of SIRT6 in rat L6 cells assessed as increase in 2-NBDG uptake at 100 uM after 18 hrs by fluorescence plate reader relative to control; type: cell-based
[10] = biological target: T1, NAD-dependent protein deacylase sirtuin-6; experiment: Inhibition of SIRT6 in human BxPC3 cells assessed as potentiation of gemcitabine-induced cytotoxicity by measuring cell viability at 30 uM by CellTiter96 Aqueous1 assay; type: cell-based; conditions: BXPC-3
[11] = biological target: T1, NAD-dependent protein deacylase sirtuin-6; experiment: Competitive inhibition of human recombinant SIRT6 deacetylase activity using NAD+ as a substrate at 50 uM by double-reciprocal plot analysis
[12] = biological target: T1, NAD-dependent protein deacylase sirtuin-6; experiment: Inhibition of SIRT6 in human BxPC-3 cells assessed as increase in radiolabelled glucose uptake at 100 uM after 18 hrs by fluorescence plate reader relative to control; type: cell-based
[13] = biological target: T1, NAD-dependent protein deacylase sirtuin-6; experiment: Competitive inhibition of human recombinant SIRT6 deacetylase activity using Arg-His-Lys-Lys(AC)-AMC as a substrate at 50 uM by double-reciprocal plot analysis
[14] = biological target: T1, NAD-dependent protein deacylase sirtuin-6; experiment: Inhibition of SIRT6 in human BxPC-3 cells assessed as increase in H3K9 acetylation by immunoblotting assay relative to control; type: cell-based
[15] = biological target: T1, NAD-dependent protein deacylase sirtuin-6; experiment: Inhibition of human SIRT6 in BRCA2-deficient Capan1 cells assessed as potentiation of olaparib-induced DNA damage by measuring cell viability at 100 uM after 7 days by CellTiter96 Aqueous1 assay; type: cell-based; conditions: CAPAN-1
[16] = biological target: T1, NAD-dependent protein deacylase sirtuin-6; experiment: Inhibition of human SIRT6 in […] Capan1 cells assessed as potentiation of NU1025-induced cytotoxicity by measuring cell viability at 100 uM after 7 days by CellTiter96 Aqueous1 assay; type: cell-based; conditions: CAPAN-1
[17] = Cytotoxicity against human BxPC3 cells assessed as cell viability at 30 uM after 72 hrs by CellTiter96 Aqueous1 assay; type: cell-based, BXPC-3; conditions: for Activity: bxpc-3, 72 h, 30 µM
[18] = biological target: T1, NAD-dependent protein deacylase sirtuin-6; experiment: Inhibition of SIRT6 in human BxPC3 cells assessed as reduction in TNF alpha production by ELISA; type: cell-based; conditions: BXPC-3, concentration not given here
[19] = biological target: T3, NAD-dependent protein deacetylase sirtuin-2 (Homo sapiens, UniProt Q8IXJ6); experiment: Inhibition of human SIRT2 deacetylase activity using Arg-His-Lys-Lys(AC)-AMC as a substrate by fluorescence assay
T3 sequence (Q8IXJ6 whole entry): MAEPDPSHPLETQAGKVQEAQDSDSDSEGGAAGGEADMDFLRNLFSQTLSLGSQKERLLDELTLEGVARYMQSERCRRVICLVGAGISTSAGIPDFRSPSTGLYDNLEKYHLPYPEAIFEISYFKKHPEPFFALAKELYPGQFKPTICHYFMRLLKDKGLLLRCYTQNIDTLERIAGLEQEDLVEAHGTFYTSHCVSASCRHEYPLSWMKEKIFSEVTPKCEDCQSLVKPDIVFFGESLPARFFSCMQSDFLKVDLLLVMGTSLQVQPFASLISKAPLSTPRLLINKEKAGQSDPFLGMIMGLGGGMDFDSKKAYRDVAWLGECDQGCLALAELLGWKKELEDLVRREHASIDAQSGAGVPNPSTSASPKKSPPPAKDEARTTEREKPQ

[20] = organism: Homo sapiens; experiment: Selectivity ratio of IC50 for human SIRT1 to IC50 for human SIRT6
[21] = biological target: Protein Sirt6 (Rattus norvegicus) (UniProt A6K863); experiment: Inhibition of SIRT6 in rat L6 cells assessed as increase in radiolabelled glucose uptake at 100 uM after 18 hrs by fluorescence plate reader relative to control; type: cell-based
[22] = biological target: T1, NAD-dependent protein deacylase sirtuin-6; experiment: Inhibition of SIRT6 in human PBMC assessed as inhibition of MLR-induced TNF alpha production at 100 uM after 3 days by ELISA
[23] = test system: CAPAN-1; experiment: Induction of DNA damage in human BRCA2-deficient Capan1 cells assessed as increase in gammaH2AX levels at 100 uM after 24 hrs by flow cytometry analysis; type: functional, cell-based
[24] = biological target: T1, NAD-dependent protein deacylase sirtuin-6; experiment: Inhibition of human SIRT6 in BRCA2-deficient Capan1 cells assessed as potentiation of olaparib-induced DNA damage by measuring gammaH2AX levels at 100 uM after 24 hrs by confocal microscopy; type: cell-based; conditions: CAPAN-1
[25] = test system: CAPAN-1; experiment: Induction of DNA damage in human BRCA2-deficient Capan1 cells assessed as increase in gammaH2AX levels at 100 uM after 24 hrs by confocal microscopy; type: functional, cell-based
[26] = biological target: T1, NAD-dependent protein deacylase sirtuin-6; experiment: Inhibition of SIRT6 in human PBMC assessed as inhibition of PHA-induced TNF alpha production at 200 uM after 3 days by ELISA
[27] = biological target: T1, NAD-dependent protein deacylase sirtuin-6; experiment: Inhibition of SIRT6 in human PBMC assessed as inhibition of MLR-induced TNF alpha production at 200 uM after 3 days by ELISA
[28] = biological target: T1, NAD-dependent protein deacylase sirtuin-6; experiment: Inhibition of human SIRT6 in BRCA2-deficient Capan1 cells assessed as potentiation of olaparib-induced DNA damage by measuring gammaH2AX levels at 100 uM after 24 hrs by flow cytometry analysis; type: cell-based; conditions: CAPAN-1

Chain of Protein Sirt6 (Rattus norvegicus) (A6K863 as listed by the source): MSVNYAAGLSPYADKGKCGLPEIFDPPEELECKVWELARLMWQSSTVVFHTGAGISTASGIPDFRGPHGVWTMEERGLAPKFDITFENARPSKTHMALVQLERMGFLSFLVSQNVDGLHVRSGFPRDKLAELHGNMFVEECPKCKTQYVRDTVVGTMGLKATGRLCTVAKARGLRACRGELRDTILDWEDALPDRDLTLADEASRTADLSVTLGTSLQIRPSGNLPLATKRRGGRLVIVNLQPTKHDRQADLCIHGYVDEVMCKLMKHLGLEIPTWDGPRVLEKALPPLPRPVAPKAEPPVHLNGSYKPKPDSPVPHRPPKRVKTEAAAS
T1 sequence (Q8N6T7 whole entry): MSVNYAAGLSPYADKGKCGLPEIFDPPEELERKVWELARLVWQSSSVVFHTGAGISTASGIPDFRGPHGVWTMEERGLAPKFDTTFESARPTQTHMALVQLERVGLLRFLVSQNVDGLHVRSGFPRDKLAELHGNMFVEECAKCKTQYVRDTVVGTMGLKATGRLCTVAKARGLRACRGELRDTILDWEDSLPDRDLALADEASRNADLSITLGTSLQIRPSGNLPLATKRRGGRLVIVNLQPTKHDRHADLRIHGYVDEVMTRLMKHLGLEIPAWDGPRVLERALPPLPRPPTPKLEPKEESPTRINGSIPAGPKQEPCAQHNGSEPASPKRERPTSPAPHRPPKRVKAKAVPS

Compound: O=c1[nH]c(=O)c2cc(S(=O)(=O)NC3CCN(Cc4ccccc4)C3)ccc2[nH]1 (centres undefined)
IC50 [1]: 517 µM

Compound: Cn1ccc2cc(NS(=O)(=O)c3ccc4[nH]c(=O)[nH]c(=O)c4c3)ccc21
IC50 [1]: 82 µM

Compound: CC(=O)Nc1ccc(S(=O)(=O)Nc2ccc(Oc3cccnc3)cc2)cc1
IC50 [1]: 242 µM
IC50 [2]: 297 µM

Compound: O=C(c1cc(Cc2n[nH]c(=O)c3ccccc23)ccc1F)N1CCN(C(=O)C2CC2)CC1
Activity [3]: Active
Activity [4]: Active

Compound: O=S(=O)(Nc1ccc(Oc2cccnc2)cc1)c1ccccc1
IC50 [1]: 300 µM

Compound: O=c1[nH]c(=O)c2cc(S(=O)(=O)NCc3cccc(Cn4ccnc4)c3)ccc2[nH]1
IC50 [1]: 2870 µM

Compound: O=c1[nH]c(=O)c2cc(S(=O)(=O)Nc3cccc(CCc4ccncc4)c3)ccc2[nH]1
viability [5]: > 80%
inhibition [6]: 44%
IC50 [7]: 424 µM
Ratio IC50 [8]: 2.3
fold increase in 2-NBDG uptake [9]: 1 fold
Activity [10]: Active
inhibition [11]: Active
fold increase in glucose uptake [12]: 1.2 fold
inhibition [13]: Active
fold increase in H3K9 acetylation [14]: 1.4 fold
Activity [15]: Active
Activity [16]: Active
Activity [17]: Non-toxic
inhibition [18]: 72%
IC50 [19]: 85 µM
Ratio IC50 [20]: 11.5
IC50 [1]: 55 µM
fold increase in glucose uptake [21]: 2.8 fold
IC50 [2]: 37 µM
inhibition [22]: 27%

Compound: O=c1[nH]c(=O)c2cc(S(=O)(=O)Nc3ccccc3-c3ccccc3)ccc2[nH]1
IC50 [1]: 137 µM
IC50 [2]: 137 µM

Compound: Cn1c(=O)c2cc(S(=O)(=O)Nc3ccc(Cc4ccncc4)cc3)ccc2n(C)c1=O
IC50 [7]: 6520 µM
Ratio IC50 [8]: 4.94
fold increase in 2-NBDG uptake [9]: 3.1 fold
inhibition [11]: Active
fold increase in glucose uptake [12]: 1.9 fold
inhibition [13]: Active
fold increase in H3K9 acetylation [14]: 1.6 fold
viability at 72 h, 30 µM ([17]; BxPC3 cells, read-out: Activity): 75%
IC50 [19]: 242 µM
Ratio IC50 [20]: 133
IC50 [1]: 38 µM
fold increase in glucose uptake [21]: 4 fold
IC50 [2]: 49 µM

Compound: O=C1CCCN1c1ccc(S(=O)(=O)Nc2ccc(Oc3cccnc3)cc2)cc1
IC50 [2]: 441 µM

Further lines, with some results ahead:

IC50 [1]: 102 µM
IC50 [2]: 77 µM
Compound: Cn1c(=O)sc2cc(S(=O)(=O)Nc3ccc(Oc4cccnc4)cc3)ccc21

IC50 [1]: 127 µM
Compound: O=c1[nH]c(=O)c2cc(S(=O)(=O)Nc3ccc(Oc4ccccc4)cc3)ccc2[nH]1

inhibition [6]: 31%
IC50 [7]: 238 µM
Ratio IC50 [8]: 2.65
fold increase in 2-NBDG uptake [9]: 0.7 fold
fold increase in glucose uptake [12]: 0.6 fold
fold increase in H3K9 acetylation [14]: 1.5 fold
inhibition [18]: 25%
IC50 [19]: 159 µM
Ratio IC50 [20]: 3.97
fold increase in glucose uptake [21]: 0.8 fold
IC50 [2]: 60 µM
inhibition [22]: 21%
Compound: O=c1[nH]c(=O)c2cc(S(=O)(=O)Nc3ccc(Cn4ccnc4)cc3)ccc2[nH]1
viability [5]: > 80%
Activity [10]: Active
Activity [16]: Active
Activity [17]: Non-toxic

IC50 [1]: 275 µM
IC50 [2]: 270 µM
Compound: O=C1CCc2cc(S(=O)(=O)Nc3ccc(Oc4cccnc4)cc3)ccc2N1

Ratio IC50 [8]: 1.07
fold increase in 2-NBDG uptake [9]: 2.4 fold
inhibition [11]: Active
fold increase in glucose uptake [12]: 1.3 fold
inhibition [13]: Active
fold increase in H3K9 acetylation [14]: 2.2 fold
inhibition [26]: 52%
inhibition [18]: 73%
Ratio IC50 [20]: 2.96
IC50 [1]: 136 µM
inhibition [27]: 47%
fold increase in glucose uptake [21]: 2 fold
Compound: O=c1[nH]c(=O)c2cc(S(=O)(=O)Nc3ccc(Oc4cccnc4)cc3)ccc2[nH]1
viability [5]: > 50%
Activity [23]: Active
Activity [24]: Active
Activity [25]: Active
Activity [15]: Active
Activity [16]: Active
Activity [28]: Active
